≈ marks a conversion by molar mass, not a printed value.
Legend:
[1] = target: T1, human recombinant BACE-1 (hBACE-1) (Homo sapiens, UniProt P56817); assay: In vitro hBACE-1 inhibition (fluorometric method); type: biochemical; details: for inhibition at 15 µM: read-out: hBACE-1 % inh. @15 µM
T1 construct: purchased Invitrogen, Carlsbad, CA, USA
Protocol: The inhibition of human recombinant BACE-1 (hBACE-1) (Invitrogen, Carlsbad, CA, USA) by hybrids 4–7 was evaluated by a fluorometric method. The substrate (Panvera peptide, 10 μL, 250 nM final concentration) was added to a solution (10 μL) of hybrids 4–7 or buffer in control wells (20 mM sodium acetate at pH 4.5, with 0.1% w/v CHAPS). After the addition of the enzyme (10 μL, 12.91 mU), the assay solution was incubated for 1 h at 37 °C. Thereafter, STOP solution (10 μL, 2.5 M sodium acetate) was added and the fluorescence was read at […]. The DMSO concentration in the assay solution was kept <5% (v/v) to ensure no significant loss of BACE-1 activity. The background signal, determined in control wells with all the components of the assay but BACE-1, was subtracted. The fluorescence intensities in the presence of increasing concentrations or in the absence of hybrids 4–7 were compared to calculate the percent of enzyme inhibition produced by the compounds, by applying the following expression: 100 − (IFi/IFo × 100), in which IFi and IFo are the fluorescence intensities in the presence and in the absence of the compounds, respectively. Additionally, the IC50 values were calculated (GraphPad Prism 4.03 software, GraphPad Software Inc., San Diego, CA, USA) and are given as the mean ± SEM of at least two experiments, each performed in triplicate.

[2] = Plasma stability, rat plasma; type: in vitro ADME; details: 37 °C
zebrafish embryos = assay: Fish embryo acute toxicity (FET) test in zebrafish embryos; type: in vivo; details: 72 h of exposure, lethality
Protocol: Test solutions were freshly prepared for each experiment and were renewed every 24 h. The maximum tested compound concentration was 100 µM and four additional concentrations were also prepared by applying a 1:2 dilution factor. A 1% DMSO solution was used as a vehicle control.
Six-well plates were incubated at 26 ± 1 °C under a 14:10 light:dark cycle for 72 h. To assess the potential lethality of the new compounds, we followed, every 24 h, the four parameters that are outlined in the OECD Guideline No. 236: embryo coagulation, lack of somite formation, non-detachment of the tail, and absence of a heartbeat (from 48 h onward). The percentage of lethality at each concentration that was tested for the new compounds was recorded and expressed as mean ± SEM from three or more independent experiments. […] LOAEC values were determined through an ANOVA test with Bonferroni’s post-hoc test for multiple comparisons (significance threshold: p < 0.05).

[3] = PAMPA-BBB
Protocol: The parallel artificial membrane permeability assay for the blood–brain barrier (PAMPA-BBB) [41] was used to assess the in vitro brain permeability of the new compounds. For the assay, the compounds were dissolved in mixtures of PBS and ethanol (70:30).

[4] = target: T1, human recombinant BACE-1 (hBACE-1); parameters: method as in PMID 24568372; details: cited from earlier work
[5] = Plasma stability, mouse plasma; type: in vitro ADME; details: 37 °C
[6] = compound at 15 µM (parenthesized values)

T1 sequence (P56817 46-501): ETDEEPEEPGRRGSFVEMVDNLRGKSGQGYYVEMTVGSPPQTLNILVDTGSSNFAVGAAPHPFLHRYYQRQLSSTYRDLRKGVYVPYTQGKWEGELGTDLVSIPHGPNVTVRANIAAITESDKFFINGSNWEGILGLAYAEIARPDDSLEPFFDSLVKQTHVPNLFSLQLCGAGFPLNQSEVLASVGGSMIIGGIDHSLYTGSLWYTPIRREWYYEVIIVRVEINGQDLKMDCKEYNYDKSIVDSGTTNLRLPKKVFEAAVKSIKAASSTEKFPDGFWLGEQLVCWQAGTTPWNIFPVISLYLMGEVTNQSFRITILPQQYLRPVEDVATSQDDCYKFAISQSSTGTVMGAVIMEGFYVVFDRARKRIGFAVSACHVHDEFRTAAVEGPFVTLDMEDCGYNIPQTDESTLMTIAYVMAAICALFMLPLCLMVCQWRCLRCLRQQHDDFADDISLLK

Structure (SMILES)	IC50 [1] [µM]	inhibition at 15 µM [1, 6] [%]	% hydrolyzed in rat plasma after 6 h [2] [%]	LOAEC (zebrafish embryos) [µM]	other results
CC(=O)c1cccc(C(=O)NCCCCCCCCCNc2c3c(nc4cc(Cl)ccc24)CC2C=C(C)CC3C2)c1 (stereo not drawn) [Compound 7, 3-Acetyl-N-{9-[(3-chloro-6,7,10,11-tetrahydro-9-methyl-7,11-methanocycloocta[b]quinolin-12-yl)amino]nonyl}benzamide]	≤ 15	48	14.2	–	hBACE-1 % inh. @15 µM ([1]; compound at 15 µM (parenthesized values), 15 µM): (48.1 ± 0.3) %; Solubility (kinetic solubility, 37 °C, 2 h, PBS with 1% DMSO, nephelometry): 18.1 µM (≈ 10.4 µg/mL); increased aqueous solubility relative to the initial lead (relative to lead 3): 2 fold
CC1=CC2Cc3nc4cc(Cl)ccc4c(NCCCCCCCCCNC(=O)c4cc(O)c5c(c4)C(=O)c4cccc(O)c4C5=O)c3C(C1)C2 (stereo not drawn) [Compound 3]	1.5 ± 0.38	–	32.1	100	BBB permeation class ([3]; CNS+ threshold Pe over 5.21 × 10^−6 cm/s): CNS+ (high BBB permeation (CNS+), with Pe (10^−6 cm/s) > 5.21); Brain Permeability Pe ([3]; mean ± SD): 21.5 ± 0.7 10^−6 cm s^−1; BACE-1 inhibition (in words) [4]: found to inhibit BACE-1; % hydrolyzed in mouse plasma after 6 h [5]: 7.1%
CC1=CC2Cc3nc4cc(Cl)ccc4c(NCCCCCCCCCNC(=O)c4ccc5c(c4)C(=O)c4ccccc4-5)c3C(C1)C2 (stereo not drawn) [Compound 5, N-{9-[(3-Chloro-6,7,10,11-tetrahydro-9-methyl-7,11-methanocycloocta[b]quinolin-12-yl)amino]nonyl}-9-fluorenone-2-carboxamide]	5.63 ± 0.01	–	–	–	–
CC1=CC2Cc3nc4cc(Cl)ccc4c(NCCCCCCCCCNC(=O)c4cccc(C(=O)c5ccccc5)c4)c3C(C1)C2 (stereo not drawn) [Compound 6, 3-Benzoyl-N-{9-[(3-chloro-6,7,10,11-tetrahydro-9-methyl-7,11-methanocycloocta[b]quinolin-12-yl)amino]nonyl}benzamide]	≤ 15	61.5	–	50	–
CC1=CC2Cc3nc4cc(Cl)ccc4c(NCCCCCCCCCNC(=O)c4ccc5c(c4)C(=O)c4ccccc4C5=O)c3C(C1)C2 (stereo not drawn) [Compound 4, N-{9-[(3-Chloro-6,7,10,11-tetrahydro-9-methyl-7,11-methanocycloocta[b]quinolin-12-yl)amino]nonyl}anthraquinone-2-carboxamide]	2.89 ± 0.5	–	–	–	–

Source: article PMC11359831, “Stepwise Structural Simplification of the Dihydroxyanthraquinone Moiety of a Multitarget Rhein-Based Anti-Alzheimer Lead to Improve Drug Metabolism and Pharmacokinetic Properties” (Pharmaceutics, 2024)
